Legend:
AMPA = assay: AMPA-induced spreading depression of chick retina; conditions: concentration of 20 µM
Method: The AMPA antagonistic effect of the compounds was also tested on spreading depression of chick retina (Sheardown, M. J.: Brain Res., 1993, 607, 189) in a concentration of 20 µM.

[1] = system: scopolamine-induced memory-deficit in rats; assay: passive avoidance test, counter-balancing scopolamine-induced memory-deficit; format: in vivo; conditions: oral doses of 50 mg/kg
Method: The memory-enhancing effect of the compounds according to the invention was measured by counter-balancing the scopolamine-induced memory-deficit in rats, with oral doses of 50 mg/kg, in the passive avoidance test published by Cumin, R. et al. [Psychopharmacology, 78, 104 (1982)].

Structure (SMILES) | Antagonistic effect on AMPA-induced spreading depression (%) (AMPA) | Memory improvement compared to amnesic control (%) [1] [%]
Cn1ncc2c(c1=O)SCCNC2C(=O)c1ccccc1 (stereo not shown) [Example 3, 5-Benzoyl-8-methyl-2,3,4,5-tetrahydro-9(8H)-pyridazino[4,5-b][1,5]thiazepinone] | 10 | 100
O=c1c2c(cnn1CC=Cc1ccccc1)N(Cc1ccccc1)CCCO2 [Example 7, 5-Benzyl-8-cynnamyl-2,3,4,5-tetrahydro-9(8H)-pyridazino[4,5-b] [1,5]oxazepinone] | 16 | 250
